Assay results taken from ChEMBL document CHEMBL1201862, “PubChem BioAssay data set” (2004).
“And” between values parts separate entries of the source, which are not always exact repeats. Equal entries are not always repeated.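 Values below derive from 48-hour exposures of cells grown in 96-well plates, with endpoints linearly interpolated between the two concentrations bracketing the appropriate inhibition level. Abbreviation: GI50, concentration required for 50% inhibition of growth.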 The source made the active and inactive calls. Rule as the data show it: active = GI50 up to about 1.1 µM and inactive = higher.

Tests used:
Test in all cases: NCI anticancer screen, dose series, 48 h
SNB-19 = tested on: SNB-19
A498 = tested on: A498
SK-OV-3 = tested on: SK-OV-3
SK-MEL-28 = tested on: SK-MEL-28
SR = tested on: SR
NCI-H522 = tested on: NCI-H522
SF-539 = tested on: SF-539
SN12C = tested on: SN12C
U-251 = tested on: U-251
NCI-H460 = tested on: NCI-H460
MOLT-4 = tested on: MOLT-4
SK-MEL-2 = tested on: SK-MEL-2
SF-295 = tested on: SF-295
COLO 205 = tested on: COLO 205
KM12 = tested on: KM12

Measured: GI50

Nc1cc(C(=O)NC2C3CC4CC(C3)CC2C4)nc(S)n1 (stereo not drawn)
inactive: SNB-19 > 100 µM | A498 > 100 µM | SK-OV-3 > 100 µM | SK-MEL-28 > 100 µM | SR > 100 µM | NCI-H522 > 100 µM | SF-539 > 100 µM | SN12C > 100 µM | U-251 > 100 µM | NCI-H460 > 100 µM | MOLT-4 > 100 µM

O=[N+]([O-])c1cccc(C2N3CCCCC3[C@@H]3c4[nH]c5ccccc5c4CCN23)c1 (stereo partly drawn)
inactive: SK-MEL-2 10.1 µM | SNB-19 19.7 µM | A498 15 µM | SK-OV-3 17.8 µM | SK-MEL-28 16.3 µM | SF-539 14.8 µM | SF-295 15.1 µM | COLO 205 13.2 µM | SN12C 14.5 µM | U-251 14.1 µM | NCI-H460 16.4 µM | MOLT-4 5.85 µM

COc1ccc(OC(C)C(=O)O)c2c1CCCC2=O (stereo not drawn)
inactive: SK-MEL-2 > 100 µM | SNB-19 > 100 µM | A498 > 100 µM | SK-OV-3 > 100 µM | SK-MEL-28 > 100 µM | SR > 100 µM | NCI-H522 > 100 µM | SF-539 > 100 µM | SF-295 > 100 µM | COLO 205 > 100 µM | KM12 > 100 µM | SN12C > 100 µM | U-251 > 100 µM | NCI-H460 > 100 µM | MOLT-4 > 100 µM

COc1ccc(-c2c(C3=NCCCN3)nnn2-c2ccc([N+](=O)[O-])cc2)cc1
inactive: SK-MEL-2 > 100 µM | SNB-19 > 100 µM | A498 > 100 µM | SK-OV-3 34.8 µM | SK-MEL-28 > 100 µM | SR > 100 µM | NCI-H522 > 100 µM | SF-539 > 100 µM | SF-295 > 100 µM | COLO 205 > 100 µM | KM12 > 100 µM | SN12C > 100 µM | U-251 > 100 µM | NCI-H460 > 100 µM | MOLT-4 > 100 µM

COc1cc(/C=C/C(=O)c2cccc3ccccc23)cc(OC)c1OC
inactive: SK-MEL-2 3.46 µM | SNB-19 13.4 µM | A498 2.82 µM | SK-OV-3 15.2 µM | SK-MEL-28 6.24 µM | SR 3.13 µM | NCI-H522 4.68 µM | SF-295 10.1 µM | KM12 4.06 µM | SN12C 3.39 µM | U-251 6.41 µM | NCI-H460 3.78 µM | MOLT-4 3.44 µM

O=[N+]([O-])c1ccc(-n2nnc(C3=NCCN3)c2-c2ccc(Cl)cc2)cc1
inactive: SK-MEL-2 > 100 µM | SNB-19 > 100 µM | A498 > 100 µM | SK-OV-3 > 100 µM | SK-MEL-28 > 100 µM | SR 27.2 µM | NCI-H522 > 100 µM | SF-539 > 100 µM | SF-295 > 100 µM | COLO 205 51.6 µM | KM12 > 100 µM | SN12C > 100 µM | U-251 > 100 µM | NCI-H460 91.4 µM | MOLT-4 65.3 µM

COC1(OC)C2(Cl)C3=CCCC=C3C1(Cl)C(Cl)=C2Cl
inactive: SK-MEL-2 16.9 µM | SNB-19 26.1 µM | SK-OV-3 26 µM | SK-MEL-28 30.2 µM | SR 18.1 µM | NCI-H522 12.9 µM | SF-539 29 µM | SF-295 25.1 µM | COLO 205 18.6 µM | KM12 34.3 µM | SN12C 28.7 µM | U-251 30.3 µM | NCI-H460 26.5 µM | MOLT-4 18.4 µM

CCCCCCC(=O)CC(=O)C(=O)Nc1ccccc1C
inactive: SK-MEL-2 > 100 µM | SNB-19 > 100 µM | A498 > 100 µM | SK-OV-3 > 100 µM | SK-MEL-28 > 100 µM | SR > 100 µM | NCI-H522 > 68.5 µM | SF-539 > 100 µM | SF-295 > 100 µM | COLO 205 > 57.1 µM | KM12 > 100 µM | SN12C > 100 µM | U-251 > 89.1 µM | NCI-H460 > 51.1 µM | MOLT-4 > 100 µM

COc1ccc(/C=C/C(=O)c2c(-c3ccccc3)nn(C)c(=O)c2N2CCOCC2)cc1
inactive: SNB-19 > 100 µM | A498 > 100 µM | SK-OV-3 > 100 µM | SK-MEL-28 > 100 µM | NCI-H522 > 100 µM | SF-539 > 100 µM | SF-295 > 100 µM | COLO 205 > 100 µM | SN12C > 100 µM | U-251 > 100 µM | NCI-H460 > 100 µM | MOLT-4 43.5 µM

O=C(c1ccccc1)c1nnn(Cc2ccccc2Cn2nnc(C(=O)c3ccccc3)c2C(=O)c2ccccc2)c1C(=O)c1ccccc1
inactive: SK-MEL-2 > 100 µM | SNB-19 > 100 µM | A498 > 100 µM | SK-OV-3 > 100 µM | SK-MEL-28 > 100 µM | SR > 100 µM | NCI-H522 > 100 µM | SF-539 > 100 µM | SF-295 > 100 µM | COLO 205 50.5 µM | KM12 > 100 µM | SN12C > 100 µM | U-251 > 100 µM | NCI-H460 > 100 µM | MOLT-4 > 100 µM

CC(C)C(NCc1c2ccccc2nc2ccccc12)C(=O)O (stereo not drawn)
inactive: SK-MEL-2 62.2 µM | SK-OV-3 > 100 µM | SK-MEL-28 87.5 µM | SR 20.6 µM | NCI-H522 22 µM | SF-539 45.3 µM | SF-295 81.5 µM | COLO 205 72.8 µM | KM12 33.3 µM | SN12C 50 µM | U-251 91.8 µM | NCI-H460 31.1 µM | MOLT-4 15.2 µM

CN(C)/C(=N/C(=S)Nc1ccccc1)SCc1ccccc1
inactive: SK-MEL-2 49.9 µM | SNB-19 40.3 µM | A498 83.8 µM | SK-OV-3 > 100 µM | SK-MEL-28 42.2 µM | NCI-H522 2.73 µM | SF-539 > 100 µM | SF-295 42.9 µM | COLO 205 14.9 µM | KM12 7.23 µM | SN12C 66.2 µM | U-251 49.2 µM | MOLT-4 32.5 µM

OCC1C(/C=C/c2ccoc2)ON2CCCC12 (stereo not drawn)
inactive: SK-MEL-2 > 100 µM | SNB-19 > 100 µM | SK-MEL-28 > 100 µM | NCI-H522 > 100 µM | SF-539 > 100 µM | SF-295 > 100 µM | COLO 205 > 100 µM | KM12 > 100 µM | SN12C > 100 µM | U-251 > 100 µM | NCI-H460 > 100 µM

c1ccc(-c2nnc(-c3nn(-c4ccccc4)c4nc5ccccc5nc34)o2)cc1
inactive: SK-MEL-2 > 100 µM | SNB-19 > 100 µM | SK-OV-3 > 100 µM | SK-MEL-28 > 100 µM | NCI-H522 44.9 µM | SF-539 68.4 µM | SF-295 > 100 µM | COLO 205 93.8 µM | KM12 > 100 µM | SN12C > 100 µM | U-251 85.1 µM | NCI-H460 > 10 µM | MOLT-4 21.5 µM

COc1cc(/C=C2\C(=O)N(C(=O)c3ccc(NC(C)=O)cc3)N=C2C)ccc1O
inactive: SNB-19 > 100 µM | SK-MEL-28 > 100 µM | SR > 100 µM | NCI-H522 > 100 µM | SF-539 > 100 µM | SF-295 > 100 µM | COLO 205 > 100 µM | KM12 > 100 µM | SN12C > 100 µM | NCI-H460 > 100 µM | MOLT-4 > 100 µM

CCN(CC)CCCn1cnc2ncccc2c1=O
inactive: SK-MEL-2 > 100 µM | SNB-19 > 100 µM | SK-OV-3 > 100 µM | SK-MEL-28 > 100 µM | SR > 100 µM | NCI-H522 > 100 µM | SF-539 > 100 µM | SF-295 > 100 µM | COLO 205 > 100 µM | KM12 > 100 µM | SN12C > 100 µM | U-251 > 100 µM | NCI-H460 > 100 µM

Cc1c(C(=O)/C=C/c2ccc(N(C)C)cc2)c(=O)n(-c2ccccc2)n1C
inactive: SK-MEL-2 > 100 µM | SNB-19 > 100 µM | A498 > 100 µM | SK-OV-3 > 100 µM | SK-MEL-28 > 100 µM | NCI-H522 > 100 µM | SF-539 > 100 µM | SF-295 > 100 µM | COLO 205 > 100 µM | KM12 > 100 µM | SN12C > 100 µM | U-251 > 100 µM | NCI-H460 > 100 µM | MOLT-4 > 100 µM

CCOc1ccccc1/N=N/c1c(-c2ccccc2)nn(C(=O)CC(=O)Nc2cccc(C)c2)c1-c1ccccc1
inactive: SK-MEL-2 > 100 µM | SNB-19 > 100 µM | SK-OV-3 > 100 µM | SK-MEL-28 > 100 µM | SR > 100 µM | NCI-H522 > 100 µM | SF-539 > 100 µM | SF-295 > 100 µM | COLO 205 > 100 µM | KM12 94 µM | SN12C > 100 µM | U-251 > 100 µM | NCI-H460 > 100 µM | MOLT-4 > 100 µM

Cc1ccc(-c2cc(=S)n(-c3ccccc3)c3[nH]c(=S)n(-c4ccccc4)c(=N)c23)cc1
inactive: SK-MEL-2 > 100 µM | SNB-19 > 100 µM | SK-MEL-28 > 100 µM | SR > 100 µM | NCI-H522 77.8 µM | SF-539 > 100 µM | SF-295 > 100 µM | COLO 205 > 100 µM | KM12 > 100 µM | U-251 > 100 µM | NCI-H460 > 100 µM | MOLT-4 > 100 µM

CC(C)=CCSC1CC2C(CC1(C)O)C2(C)C (stereo not drawn)
inactive: SNB-19 17.2 µM and 19.3 µM | A498 21.6 µM and 17.3 µM | SK-OV-3 15 µM and 16.2 µM | SK-MEL-28 16.8 µM and 17 µM | SF-539 18 µM and 15.6 µM | SF-295 40.7 µM and 20.9 µM | COLO 205 17.1 µM and 18.5 µM | KM12 19.3 µM and 14.1 µM | SN12C 17 µM and 15.6 µM | U-251 15.2 µM and 14.1 µM | NCI-H460 18.4 µM and 14.2 µM | MOLT-4 13.6 µM and 20.9 µM
